Patent publication US20150307520A1, “NOVEL HETEROARYL AND HETEROCYCLE COMPOUNDS, COMPOSITIONS AND METHODS THEREOF” (HUTCHISON MEDIPHARMA LIMITED, priority 2012, published 2015)

Assays:
Type in all cases: biochemical
p110α/p85α = p110α/p85α (Homo sapiens, UniProt P42336); assay: Transcreener KINASE Assay, kinase inhibition of p110α/p85α; details: for PI3Kα IH % @ 1 uM: 1 uM test compound
Experimental: PI3K kinases including p110α/p85α, p110δ/p85α and p110γ are purchased from Invitrogen, and p110β/p85α is from Millipore.
Primary screening data and IC50 values are measured using Transcreener™ KINASE Assay (Bellbrook, Catalog #3003-10K). […] It is a universal, homogenous, high throughput screening (HTS) technology using a far-red, competitive fluorescence polarization immunoassay based on the detection of ADP to monitor the activity of enzymes that catalyze group transfer reactions. Briefly, the Transcreener KINASE Assay is designed as a simple two-part, endpoint assay.
In the first step, the 25 ul kinase reaction is performed by preparing a reaction mixture containing 5 ul test compound (2% DMSO final concentration), 10 ul kinase, buffer (50 mM HEPES, 100 mM NaCl, 1 mM EGTA, 0.03% CHAPS, 3 mM MgCl2, and freshly supplemented 1 mM DTT), and 10 ul 30 uM PIP2/10 uM ATP. The plate is sealed and incubated for 80 min at room temperature. Next, 25 ul ADP detection mix is added per well. The plate is sealed again and incubated for 60 min at room temperature, and then measure fluorescence polarization by Tecan Infinite F500 Reader.
Data is analyzed and IC50s are generated using the add-in software for Microsoft Excel, Xlfit™ (version 2.0). IH %=(ADP amount under 2% DMSO-ADP amount under test compound)/ADP amount under 2% DMSO.

p110β/p85α = p110β/p85α (Homo sapiens, UniProt P42338); assay: Transcreener KINASE Assay, kinase inhibition of p110β/p85α; details: for PI3Kβ IH % @ 1 uM: 1 uM test compound; for IC50: read-out: PI3Kβ IC50
How it was run: (§1)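 ADP production was read by fluorescence polarization immunoassay (60 min detection step) after an 80 min room-temperature reaction of p110/p85α enzyme, compound in 2% DMSO, and PIP2/ATP solution (30 uM/10 uM as added) in HEPES buffer with MgCl2 and DTT. IC50s came from inhibition versus the DMSO control.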

p110δ/p85α = p110δ/p85α (Homo sapiens, UniProt O00329); assay: Transcreener KINASE Assay, kinase inhibition of p110δ/p85α; details: for PI3Kδ IH % @ 1 uM: 1 uM test compound; for IC50: read-out: PI3Kδ IC50
Chain of p110δ/p85α (O00329 whole entry): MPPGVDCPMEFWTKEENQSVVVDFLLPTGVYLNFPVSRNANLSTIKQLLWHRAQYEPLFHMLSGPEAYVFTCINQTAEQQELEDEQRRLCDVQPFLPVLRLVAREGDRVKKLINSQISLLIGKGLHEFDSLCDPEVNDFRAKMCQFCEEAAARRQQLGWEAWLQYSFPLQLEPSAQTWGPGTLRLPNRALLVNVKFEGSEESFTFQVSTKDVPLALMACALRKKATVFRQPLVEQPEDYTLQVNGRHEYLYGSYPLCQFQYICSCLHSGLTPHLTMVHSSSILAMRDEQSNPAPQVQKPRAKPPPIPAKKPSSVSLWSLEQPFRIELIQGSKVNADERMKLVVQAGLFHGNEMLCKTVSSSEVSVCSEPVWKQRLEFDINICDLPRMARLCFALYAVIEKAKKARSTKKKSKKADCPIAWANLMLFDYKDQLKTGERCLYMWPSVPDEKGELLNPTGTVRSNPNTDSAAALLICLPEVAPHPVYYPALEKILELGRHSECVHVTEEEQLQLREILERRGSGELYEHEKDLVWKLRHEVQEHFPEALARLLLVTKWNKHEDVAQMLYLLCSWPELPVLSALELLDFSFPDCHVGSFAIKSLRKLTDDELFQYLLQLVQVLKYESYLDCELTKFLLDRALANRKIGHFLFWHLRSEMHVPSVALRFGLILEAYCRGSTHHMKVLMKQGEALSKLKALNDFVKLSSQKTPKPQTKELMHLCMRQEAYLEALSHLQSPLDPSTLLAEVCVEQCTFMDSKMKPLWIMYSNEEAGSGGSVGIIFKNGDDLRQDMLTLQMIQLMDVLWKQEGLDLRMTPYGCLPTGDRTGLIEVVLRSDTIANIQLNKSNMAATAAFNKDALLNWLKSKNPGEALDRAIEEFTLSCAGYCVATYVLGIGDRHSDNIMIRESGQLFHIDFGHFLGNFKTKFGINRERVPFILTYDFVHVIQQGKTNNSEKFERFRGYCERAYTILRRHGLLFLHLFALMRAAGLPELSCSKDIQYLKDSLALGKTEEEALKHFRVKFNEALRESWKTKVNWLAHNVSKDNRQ
Chain of p110δ/p85α (P27986 whole entry partner): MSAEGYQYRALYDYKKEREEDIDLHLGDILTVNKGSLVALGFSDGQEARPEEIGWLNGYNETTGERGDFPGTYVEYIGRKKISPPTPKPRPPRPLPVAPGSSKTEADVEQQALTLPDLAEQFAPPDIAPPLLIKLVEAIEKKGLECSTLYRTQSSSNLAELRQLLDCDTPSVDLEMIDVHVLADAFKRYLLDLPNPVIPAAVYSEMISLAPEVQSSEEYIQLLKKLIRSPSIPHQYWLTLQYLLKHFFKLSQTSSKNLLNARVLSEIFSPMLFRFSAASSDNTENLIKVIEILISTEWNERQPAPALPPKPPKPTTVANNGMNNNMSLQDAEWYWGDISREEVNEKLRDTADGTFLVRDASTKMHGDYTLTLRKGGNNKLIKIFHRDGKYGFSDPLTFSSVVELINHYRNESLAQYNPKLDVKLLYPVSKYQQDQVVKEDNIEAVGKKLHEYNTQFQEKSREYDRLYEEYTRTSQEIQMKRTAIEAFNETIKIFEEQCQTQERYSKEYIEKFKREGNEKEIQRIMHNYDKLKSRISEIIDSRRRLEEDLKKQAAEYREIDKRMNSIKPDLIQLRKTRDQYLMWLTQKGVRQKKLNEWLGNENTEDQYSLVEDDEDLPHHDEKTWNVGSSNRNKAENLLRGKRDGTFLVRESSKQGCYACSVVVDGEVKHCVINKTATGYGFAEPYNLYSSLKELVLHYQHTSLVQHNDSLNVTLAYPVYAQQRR
How it was run: as §1

p110γ = p110γ (Homo sapiens, UniProt P48736); assay: Transcreener KINASE Assay, kinase inhibition of p110γ; details: for PI3Kγ IH % @ 1 uM: 1 uM test compound; for IC50: read-out: PI3Kγ IC50
Chain of p110γ (P48736 whole entry): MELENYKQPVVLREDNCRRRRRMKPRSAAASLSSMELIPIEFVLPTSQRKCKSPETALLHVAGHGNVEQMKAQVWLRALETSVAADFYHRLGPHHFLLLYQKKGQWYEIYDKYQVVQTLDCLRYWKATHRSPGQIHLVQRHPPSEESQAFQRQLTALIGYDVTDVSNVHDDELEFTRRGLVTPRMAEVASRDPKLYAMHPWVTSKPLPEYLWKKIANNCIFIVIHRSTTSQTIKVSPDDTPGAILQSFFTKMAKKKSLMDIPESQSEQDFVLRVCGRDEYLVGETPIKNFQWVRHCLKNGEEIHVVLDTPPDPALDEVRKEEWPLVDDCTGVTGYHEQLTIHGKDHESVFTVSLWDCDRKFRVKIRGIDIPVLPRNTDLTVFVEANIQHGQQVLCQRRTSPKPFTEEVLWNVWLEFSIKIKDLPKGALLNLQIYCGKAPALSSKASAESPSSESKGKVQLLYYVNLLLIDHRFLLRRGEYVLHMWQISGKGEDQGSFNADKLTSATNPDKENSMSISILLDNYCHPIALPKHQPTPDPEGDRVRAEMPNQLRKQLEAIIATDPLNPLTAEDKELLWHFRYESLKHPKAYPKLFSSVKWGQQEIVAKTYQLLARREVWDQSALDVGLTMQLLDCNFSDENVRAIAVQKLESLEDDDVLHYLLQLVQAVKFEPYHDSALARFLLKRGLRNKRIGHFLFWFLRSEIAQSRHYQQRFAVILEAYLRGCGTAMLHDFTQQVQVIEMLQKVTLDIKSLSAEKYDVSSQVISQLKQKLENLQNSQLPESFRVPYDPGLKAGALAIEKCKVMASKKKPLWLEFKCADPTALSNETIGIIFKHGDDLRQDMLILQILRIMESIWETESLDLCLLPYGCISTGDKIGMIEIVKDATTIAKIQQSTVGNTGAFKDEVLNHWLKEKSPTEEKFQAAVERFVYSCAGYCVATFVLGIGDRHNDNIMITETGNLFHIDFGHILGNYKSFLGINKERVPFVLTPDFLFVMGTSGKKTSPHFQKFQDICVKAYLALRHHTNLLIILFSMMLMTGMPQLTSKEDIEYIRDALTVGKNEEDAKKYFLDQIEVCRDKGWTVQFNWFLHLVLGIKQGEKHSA
How it was run: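 Steps: enzyme reaction with compound, 80 min at room temperature; add ADP detection reagent, incubate 60 min at room temperature; read fluorescence polarization. Inhibition and IC50 values are derived from the ADP signal.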

Chain of p110α/p85α (P42336 whole entry): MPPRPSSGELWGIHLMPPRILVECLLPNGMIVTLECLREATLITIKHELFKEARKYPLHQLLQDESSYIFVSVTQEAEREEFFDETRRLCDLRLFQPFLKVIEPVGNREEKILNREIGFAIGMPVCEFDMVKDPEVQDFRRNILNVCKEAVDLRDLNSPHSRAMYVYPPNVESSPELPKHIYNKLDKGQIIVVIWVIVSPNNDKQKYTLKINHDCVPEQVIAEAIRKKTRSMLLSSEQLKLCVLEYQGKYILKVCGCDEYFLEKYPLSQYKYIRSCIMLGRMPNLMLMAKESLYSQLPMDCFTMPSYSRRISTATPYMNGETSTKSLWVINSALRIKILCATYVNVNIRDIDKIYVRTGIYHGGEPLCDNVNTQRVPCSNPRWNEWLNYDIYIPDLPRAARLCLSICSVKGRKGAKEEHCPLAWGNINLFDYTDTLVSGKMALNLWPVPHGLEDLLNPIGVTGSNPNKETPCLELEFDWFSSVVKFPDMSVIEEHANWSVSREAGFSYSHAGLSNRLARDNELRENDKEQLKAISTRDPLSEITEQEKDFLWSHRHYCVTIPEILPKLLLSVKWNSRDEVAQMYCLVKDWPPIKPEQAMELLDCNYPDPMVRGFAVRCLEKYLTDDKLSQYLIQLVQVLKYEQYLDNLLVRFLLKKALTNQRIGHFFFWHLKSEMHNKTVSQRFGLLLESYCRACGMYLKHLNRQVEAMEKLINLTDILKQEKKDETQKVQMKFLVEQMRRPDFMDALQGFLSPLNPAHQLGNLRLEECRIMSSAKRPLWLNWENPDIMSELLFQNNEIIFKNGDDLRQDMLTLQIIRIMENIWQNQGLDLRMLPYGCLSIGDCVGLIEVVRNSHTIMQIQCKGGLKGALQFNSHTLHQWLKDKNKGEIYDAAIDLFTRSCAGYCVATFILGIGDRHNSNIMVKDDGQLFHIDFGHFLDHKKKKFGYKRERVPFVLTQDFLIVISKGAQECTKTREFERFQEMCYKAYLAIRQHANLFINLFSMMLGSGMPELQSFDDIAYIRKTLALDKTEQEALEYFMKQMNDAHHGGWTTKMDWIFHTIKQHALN
Chain of p110α/p85α (P27986 whole entry partner): as the sequence (P27986 whole entry partner) above

| Compound | PI3Kα IH % @ 1 uM (p110α/p85α) [%] | PI3Kβ IH % @ 1 uM (p110β/p85α) [%] | IC50 (p110β/p85α) [µM] | PI3Kδ IH % @ 1 uM (p110δ/p85α) [%] | IC50 (p110δ/p85α) [µM] | PI3Kγ IH % @ 1 uM (p110γ) [%] | IC50 (p110γ) [µM] | IC50 (p110α/p85α; read-out: PI3Kα IC50) [µM] |
| --- | --- | --- | --- | --- | --- | --- | --- | --- |
| Cc1ccn2nc([C@@H]3CCCN3c3nc(N)nc4[nH]cnc34)n(-c3ccccc3)c(=O)c12 [Compound 44] | 46.7 | 74.3 | 0.302 | >100 | 0.001 | 95.2 | 0.005 | – |
| N#Cc1c[nH]c2ncnc(N3CCC[C@H]3c3nn4ccc(Cl)c4c(=O)n3Cc3ccccc3)c12 [Compound 62] | 7.1 | 42.2 | – | 95.4 | 0.039 | >100 | 0.039 | – |
| CC(C)Cn1c([C@@H]2CCCN2c2ncnc3[nH]cc(C#N)c23)nn2ccc(Cl)c2c1=O [Compound 64] | 32.6 | 78.8 | 0.251 | 98.9 | 0.003 | 89.9 | 0.041 | – |
| N#Cc1c[nH]c2ncnc(N3CCC[C@H]3c3nn4ccc(Cl)c4c(=O)n3Cc3ccccn3)c12 [Compound 65] | 52.6 | 50.6 | – | >100 | 0.014 | >100 | 0.078 | – |
| N#Cc1c[nH]c2ncnc(N3CCC[C@H]3c3nn4ccc(Cl)c4c(=O)n3Cc3cccnc3)c12 [Compound 66] | 75.6 | 63.6 | – | >100 | 0.012 | >100 | 0.014 | – |
| N#Cc1c(N)ncnc1N1CCC[C@H]1c1nn2ccc(Cl)c2c(=O)n1Cc1ccccn1 [Compound 69] | 13.0 | 57.8 | – | 99.9 | 0.009 | 68.8 | – | – |
| N#Cc1c[nH]c2ncnc(N3C[C@H](O)C[C@H]3c3nn4ccc(Cl)c4c(=O)n3-c3ccccc3)c12 [Compound 70, 4-((2S,4R)-2-(5-chloro-4-oxo-3-phenyl-3,4-dihydropyrrolo[2,1-f][1,2,4]triazin-2-yl)-4-hydroxypyrrolidin-1-yl)-7H-pyrrolo[2,3-d]pyrimidine-5-carbonitrile] | 41.6 | 92.1 | 0.22 | 99.1 | 0.003 | >100 | 0.025 | – |
| O=c1c2c(Cl)ccn2nc([C@@H]2C[C@H](F)CN2c2ncnc3[nH]cnc23)n1-c1ccccc1 [Compound 73, 5-chloro-2-((2S,4S)-4-fluoro-1-(9H-purin-6-yl)pyrrolidin-2-yl)-3-phenylpyrrolo[2,1-f][1,2,4]triazin-4(3H)-one] | 33.6 | 69.5 | 0.42 | >100 | 0.003 | 92.7 | – | – |
| CC(Nc1nc(N)ncc1C(F)(F)F)c1cn2ccc(Cl)c2c(=O)n1-c1cccc(F)c1 (stereo not shown) [Compound 84] | −3.5 | 59.3 | – | >100 | 0.004 | 75.9 | 0.032 | – |
| CCC(Nc1ncnc2[nH]cnc12)c1cn2ccc(Cl)c2c(=O)n1-c1cccc(F)c1 (stereo not shown) [Compound 85, 3-(1-(9H-purin-6-ylamino)propyl)-8-chloro-2-(3-fluorophenyl)pyrrolo[1,2-a]pyrazin-1(2H)-one] | 27.4 | 74.7 | 0.311 | >100 | 0.001 | 87.8 | 0.03 | – |
| CCC(Nc1ncnc(N)c1C#N)c1cn2ccc(Cl)c2c(=O)n1-c1cccc(F)c1 (stereo not shown) [Compound 86] | 17.8 | 86.5 | 0.172 | 99.0 | 0.002 | 76.4 | 0.139 | – |
| Cc1ccn2cc(C(C)Nc3ncnc4[nH]cc(C#N)c34)n(-c3ccccc3)c(=O)c12 (stereo not shown) [Compound 91] | 48.3 | 78.3 | 0.222 | >100 | 0.005 | 93.5 | 0.034 | – |
| Cc1ccn2cc(C(C)Nc3ncnc4[nH]cnc34)n(-c3ccccc3)c(=O)c12 (stereo not shown) [Compound 92] | 31.8 | 65.2 | – | >100 | 0.003 | 95.7 | 0.02 | – |
| Nc1ccc(-c2c[nH]c3ncnc(N4CC[C@H]4c4nn5ccc(Cl)c5c(=O)n4-c4ccccc4)c23)cn1 [Compound 101] | 47.8 | 81.6 | 0.138 | >100 | 0.003 | >100 | – | – |
| CC(Nc1ncnc2[nH]cnc12)c1cc2ccc(Cl)n2c(=O)n1-c1cccc(F)c1 (stereo not shown) [Compound 127] | 7.0 | 71.3 | 0.307 | 99.2 | 0.005 | >100 | 0.057 | – |
| CC(Nc1ncnc2[nH]cc(C#N)c12)c1cc2ccc(Cl)n2c(=O)n1-c1cccc(F)c1 (stereo not shown) [Compound 128] | 40.3 | 87.8 | 0.086 | 99.0 | 0.001 | 96.2 | 0.01 | – |
| C[S+]([O-])c1c[nH]c2ncnc(N3CCC[C@H]3c3nn4ccc(Cl)c4c(=O)n3-c3ccccc3)c12 (stereo partly shown) [Compound 186] | 28.4 | >100 | 0.284 | >100 | 0.001 | >100 | 0.01 | – |
| C[S+]([O-])c1c[nH]c2ncnc(N3CCC[C@H]3c3nn4ccc(Cl)c4c(=O)n3-c3ccccc3)c12 (stereo partly shown) [Compound 187] | 14.1 | 84.4 | – | 99.0 | 0.001 | >100 | – | – |
| C[S+]([O-])c1c[nH]c2ncnc(N3CCC[C@H]3c3nn4ccc(Cl)c4c(=O)n3-c3ccccc3)c12 (stereo partly shown) [Compound 188] | 14.7 | 68.7 | – | 98.8 | – | >100 | – | – |
| Cc1ccn2nc([C@@H]3CCCN3c3ncnc(N)c3C#N)n(-c3ccccc3)c(=O)c12 [Compound 189, (S)-4-amino-6-(2-(5-methyl-4-oxo-3-phenyl-3,4-dihydropyrrolo[2,1-f][1,2,4]triazin-2-yl)pyrrolidin-1-yl)pyrimidine-5-carbonitrile] | 54.0 | 87.0 | 0.087 | 97.5 | 0.001 | 89.2 | 0.015 | – |
| C[S+]([O-])c1c[nH]c2ncnc(N3CCC[C@H]3c3nn4ccc(Cl)c4c(=O)n3-c3ccccc3)c12 (stereo partly shown) [Compound 197] | 28.4 | >100 | 0.284 | >100 | 0.001 | >100 | 0.01 | – |
| C[S+]([O-])c1c[nH]c2ncnc(N3CCC[C@H]3c3nn4ccc(Cl)c4c(=O)n3-c3cccc(F)c3)c12 (stereo partly shown) [Compound 198] | 17.4 | 82.4 | 0.323 | >100 | 0.001 | >100 | 0.01 | – |
| CC(=O)c1cnc(N)nc1N1C[C@H](C)[C@H]1c1nn2ccc(Cl)c2c(=O)n1-c1ccc(F)cc1 [Compound 206] | – | >100 | 0.181 | 94 | 0.007 | >100 | 0.001 | 0.372 |
| N#Cc1c[nH]c2ncnc(N3C[C@@H](F)C[C@H]3c3nn4ccc(Cl)c4c(=O)n3-c3cccc(F)c3)c12 [Compound 213] | 65.2 | 85.9 | 0.088 | >100 | 0.001 | >100 | 0.007 | – |
| CC(=O)c1c[nH]c2ncnc(N3C[C@@H](F)C[C@H]3c3nn4ccc(Cl)c4c(=O)n3-c3ccccc3)c12 [Compound 268] | 38.4 | 80.3 | 0.17 | >100 | 0.003 | >100 | – | – |
